Experiments:
[1] = target: Phosphatidylinositol 4,5-bisphosphate 3-kinase catalytic subunit alpha isoform (Homo sapiens, UniProt P42336); test: Inhibition Assay; settings: 25 °C
Procedure: (§1) The final concentrations of ATP and phosphatidyl inositol in the assay are 5 μM and 6 μg/mL, respectively. […] The final concentrations of ATP and phosphatidyl inositol (PI) in the assay are 1 μM and 10 μg/mL, respectively.

[2] = target: T1, Phosphatidylinositol 4,5-bisphosphate 3-kinase catalytic subunit delta isoform (Homo sapiens, UniProt O00329); test: Inhibition Assay; settings: 25 °C
T1 sequence (O00329 whole entry): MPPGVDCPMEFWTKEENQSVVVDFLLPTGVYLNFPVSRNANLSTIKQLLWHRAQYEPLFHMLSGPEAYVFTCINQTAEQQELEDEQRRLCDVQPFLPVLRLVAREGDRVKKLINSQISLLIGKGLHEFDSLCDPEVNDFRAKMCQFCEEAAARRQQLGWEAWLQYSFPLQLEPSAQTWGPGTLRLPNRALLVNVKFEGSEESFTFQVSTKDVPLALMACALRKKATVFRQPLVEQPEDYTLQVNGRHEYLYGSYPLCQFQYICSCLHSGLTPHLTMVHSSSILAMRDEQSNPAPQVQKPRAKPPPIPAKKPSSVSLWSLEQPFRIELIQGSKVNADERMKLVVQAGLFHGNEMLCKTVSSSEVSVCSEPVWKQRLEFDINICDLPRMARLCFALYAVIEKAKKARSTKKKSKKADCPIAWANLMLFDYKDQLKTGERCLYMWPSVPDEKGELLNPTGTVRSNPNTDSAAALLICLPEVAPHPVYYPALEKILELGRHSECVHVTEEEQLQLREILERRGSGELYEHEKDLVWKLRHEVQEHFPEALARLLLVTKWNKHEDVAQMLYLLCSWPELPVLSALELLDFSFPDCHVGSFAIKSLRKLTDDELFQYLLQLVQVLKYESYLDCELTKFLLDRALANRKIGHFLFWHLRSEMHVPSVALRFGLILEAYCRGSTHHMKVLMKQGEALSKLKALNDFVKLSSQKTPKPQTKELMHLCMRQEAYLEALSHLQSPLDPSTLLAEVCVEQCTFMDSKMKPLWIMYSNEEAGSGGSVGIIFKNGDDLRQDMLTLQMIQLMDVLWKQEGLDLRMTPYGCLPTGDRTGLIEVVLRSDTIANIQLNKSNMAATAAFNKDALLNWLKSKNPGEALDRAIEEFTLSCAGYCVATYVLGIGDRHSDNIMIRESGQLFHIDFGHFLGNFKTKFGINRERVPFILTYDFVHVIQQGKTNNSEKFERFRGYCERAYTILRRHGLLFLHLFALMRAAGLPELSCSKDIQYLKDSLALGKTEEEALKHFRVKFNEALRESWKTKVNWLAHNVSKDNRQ
Procedure: as §1

Sequence of Phosphatidylinositol 4,5-bisphosphate 3-kinase catalytic subunit alpha isoform (P42336 whole entry, canonical isoform): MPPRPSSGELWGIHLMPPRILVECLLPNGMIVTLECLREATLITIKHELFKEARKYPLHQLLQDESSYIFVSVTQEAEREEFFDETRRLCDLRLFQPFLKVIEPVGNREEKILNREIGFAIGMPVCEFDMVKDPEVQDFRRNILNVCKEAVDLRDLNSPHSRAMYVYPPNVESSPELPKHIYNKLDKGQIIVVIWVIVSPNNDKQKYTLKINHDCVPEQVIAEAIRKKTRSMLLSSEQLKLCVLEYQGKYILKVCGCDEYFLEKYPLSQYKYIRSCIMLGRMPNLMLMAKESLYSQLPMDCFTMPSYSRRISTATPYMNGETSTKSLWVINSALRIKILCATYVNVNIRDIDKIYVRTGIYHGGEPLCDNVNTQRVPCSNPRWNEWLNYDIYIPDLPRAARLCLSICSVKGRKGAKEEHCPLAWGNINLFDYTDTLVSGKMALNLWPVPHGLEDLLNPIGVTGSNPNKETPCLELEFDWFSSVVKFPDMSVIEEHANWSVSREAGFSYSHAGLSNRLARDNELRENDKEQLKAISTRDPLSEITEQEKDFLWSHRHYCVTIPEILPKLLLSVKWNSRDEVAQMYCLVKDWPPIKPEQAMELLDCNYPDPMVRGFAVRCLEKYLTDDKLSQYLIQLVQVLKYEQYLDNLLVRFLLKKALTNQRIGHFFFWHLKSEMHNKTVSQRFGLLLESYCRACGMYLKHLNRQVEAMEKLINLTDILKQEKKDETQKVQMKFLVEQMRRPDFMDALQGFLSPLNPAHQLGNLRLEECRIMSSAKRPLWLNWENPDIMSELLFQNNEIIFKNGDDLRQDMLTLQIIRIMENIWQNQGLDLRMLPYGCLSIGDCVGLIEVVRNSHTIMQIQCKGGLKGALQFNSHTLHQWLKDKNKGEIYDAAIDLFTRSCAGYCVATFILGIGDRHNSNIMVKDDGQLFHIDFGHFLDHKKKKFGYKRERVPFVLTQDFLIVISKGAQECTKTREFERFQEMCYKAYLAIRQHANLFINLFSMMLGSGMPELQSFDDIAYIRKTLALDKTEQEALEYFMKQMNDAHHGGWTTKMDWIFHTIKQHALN

IC50 [1]: 468 nM
IC50 [2]: 23 nM
SMILES: COc1ncc(N2CCOc3ccc(O[C@H]4CCN(C(=O)C5COCCO5)C4)cc32)cc1F (some centres not stated) [US9539260, B115]

— BindingDB's records for patent US9539260 (Novartis AG, 2017)
